According to the NIST ThermoML archive (doi:10.1021/acs.jced.8b01146):
Several values for one entry are separate records, joined by “and”; a condition that tells them apart may be missing. Identical values can stand only once.

What was measured:
[1] = xn = mol fraction of the nth substance listed; conditions: 100 kPa, Liquid, Vibrating tube method
[2] = excess molar enthalpy (molar enthalpy of mixing); xn = mol fraction of the nth substance listed; conditions: 100 kPa, Liquid, Calvet calorimetry

O=C1CCCO1 [γ-butyrolactone] + O
Conditions	excess molar enthalpy, [2]	mass density, [1]
288.15 K, x1 = 0.00118	-0.000825 kcal/mol	999.977 kg/m3
288.15 K, x1 = 0.001181	-0.000827 kcal/mol	999.978 kg/m3
288.15 K, x1 = 0.002358	-0.00163 kcal/mol	1000.85 kg/m3
288.15 K, x1 = 0.003533	-0.0024 kcal/mol	1001.72 kg/m3
288.15 K, x1 = 0.003534	-0.0024 kcal/mol	1001.72 kg/m3
288.15 K, x1 = 0.004705	-0.00315 kcal/mol	1002.58 kg/m3
288.15 K, x1 = 0.004706	-0.00315 kcal/mol	1002.59 kg/m3
288.15 K, x1 = 0.005874	-0.00388 kcal/mol	1003.43 kg/m3
288.15 K, x1 = 0.005876	-0.00387 kcal/mol	1003.43 kg/m3
288.15 K, x1 = 0.007042	-0.00458 kcal/mol	1004.27 kg/m3
288.15 K, x1 = 0.007044	-0.00458 kcal/mol	1004.28 kg/m3
298.15 K, x1 = 0.001179	-0.000598 kcal/mol	997.864 kg/m3
298.15 K, x1 = 0.002356	-0.00117 kcal/mol	998.672 kg/m3
298.15 K, x1 = 0.00353	-0.00171 kcal/mol	999.474 kg/m3
298.15 K, x1 = 0.004701	-0.00224 kcal/mol	1000.27 kg/m3
298.15 K, x1 = 0.005869	-0.00275 kcal/mol	1001.06 kg/m3
298.15 K, x1 = 0.007036	-0.00324 kcal/mol	1001.84 kg/m3
308.15 K, x1 = 0.001179	-0.000363 kcal/mol and -0.000361 kcal/mol	994.794 kg/m3 and 994.797 kg/m3
308.15 K, x1 = 0.002356	-0.0007 kcal/mol and -0.000698 kcal/mol	995.554 kg/m3 and 995.552 kg/m3
308.15 K, x1 = 0.00353	-0.00101 kcal/mol	996.301 kg/m3
308.15 K, x1 = 0.003531	-0.00101 kcal/mol	996.302 kg/m3
308.15 K, x1 = 0.004702	-0.00131 kcal/mol	997.038 kg/m3
308.15 K, x1 = 0.004703	-0.0013 kcal/mol	997.039 kg/m3
308.15 K, x1 = 0.00587	-0.00158 kcal/mol	997.774 kg/m3
308.15 K, x1 = 0.005871	-0.00158 kcal/mol	997.78 kg/m3
308.15 K, x1 = 0.007038	-0.00184 kcal/mol	998.505 kg/m3 and 998.496 kg/m3
318.15 K, x1 = 0.001181	-0.000116 kcal/mol and -0.000115 kcal/mol	990.926 kg/m3 and 990.925 kg/m3
318.15 K, x1 = 0.002359	-0.000209 kcal/mol and -0.000208 kcal/mol	991.631 kg/m3 and 991.634 kg/m3
318.15 K, x1 = 0.003534	-0.000283 kcal/mol and -0.000286 kcal/mol	992.336 kg/m3 and 992.333 kg/m3
318.15 K, x1 = 0.004706	-0.000346 kcal/mol	993.03 kg/m3
318.15 K, x1 = 0.004707	-0.000343 kcal/mol	993.03 kg/m3
318.15 K, x1 = 0.005875	-0.00039 kcal/mol	993.721 kg/m3
318.15 K, x1 = 0.005876	-0.000386 kcal/mol	993.713 kg/m3
318.15 K, x1 = 0.007043	-0.000418 kcal/mol	994.396 kg/m3
318.15 K, x1 = 0.007044	-0.000413 kcal/mol	994.396 kg/m3

CC1CCCC(=O)O1 (centres undefined) [2H-pyran-2-one, tetrahydro-6-methyl-] + O
Conditions	excess molar enthalpy, [2]	mass density, [1]
288.15 K, x1 = 0.001653	-0.00342 kcal/mol	999.935 kg/m3
288.15 K, x1 = 0.002149	-0.00437 kcal/mol	1000.17 kg/m3
288.15 K, x1 = 0.002478	-0.00505 kcal/mol	1000.35 kg/m3
288.15 K, x1 = 0.002643	-0.00535 kcal/mol	1000.42 kg/m3
288.15 K, x1 = 0.003302	-0.0066 kcal/mol and -0.00666 kcal/mol	1000.74 kg/m3 and 1000.76 kg/m3
288.15 K, x1 = 0.004124	-0.00818 kcal/mol	1001.15 kg/m3
288.15 K, x1 = 0.004945	-0.00973 kcal/mol	1001.54 kg/m3
298.15 K, x1 = 0.001158	-0.00194 kcal/mol	997.57 kg/m3
298.15 K, x1 = 0.001653	-0.00273 kcal/mol	997.788 kg/m3
298.15 K, x1 = 0.002147	-0.00352 kcal/mol	998.009 kg/m3
298.15 K, x1 = 0.002641	-0.00431 kcal/mol	998.225 kg/m3
298.15 K, x1 = 0.0033	-0.00534 kcal/mol	998.509 kg/m3
298.15 K, x1 = 0.003306	-0.00541 kcal/mol	998.52 kg/m3
298.15 K, x1 = 0.003307	-0.00536 kcal/mol	998.507 kg/m3
298.15 K, x1 = 0.004125	-0.00661 kcal/mol	998.876 kg/m3
298.15 K, x1 = 0.004129	-0.00669 kcal/mol	998.875 kg/m3
298.15 K, x1 = 0.004131	-0.00664 kcal/mol	998.861 kg/m3
298.15 K, x1 = 0.004946	-0.0079 kcal/mol	999.23 kg/m3
298.15 K, x1 = 0.004951	-0.00787 kcal/mol	999.209 kg/m3
298.15 K, x1 = 0.004953	-0.00781 kcal/mol	999.206 kg/m3
308.15 K, x1 = 0.001656	-0.00216 kcal/mol	994.712 kg/m3
308.15 K, x1 = 0.002482	-0.00315 kcal/mol	995.04 kg/m3
308.15 K, x1 = 0.003307	-0.00409 kcal/mol and -0.00415 kcal/mol	995.379 kg/m3 and 995.363 kg/m3
308.15 K, x1 = 0.00413	-0.00511 kcal/mol	995.684 kg/m3
308.15 K, x1 = 0.004131	-0.00506 kcal/mol	995.714 kg/m3
308.15 K, x1 = 0.004953	-0.00603 kcal/mol	995.986 kg/m3
308.15 K, x1 = 0.004954	-0.00601 kcal/mol	996.02 kg/m3
318.15 K, x1 = 0.001655	-0.00147 kcal/mol and -0.00148 kcal/mol	990.83 kg/m3 and 990.824 kg/m3
318.15 K, x1 = 0.00248	-0.0022 kcal/mol	991.131 kg/m3
318.15 K, x1 = 0.002481	-0.00221 kcal/mol	991.124 kg/m3
318.15 K, x1 = 0.003305	-0.0029 kcal/mol	991.433 kg/m3
318.15 K, x1 = 0.003306	-0.00293 kcal/mol	991.423 kg/m3
318.15 K, x1 = 0.004127	-0.0036 kcal/mol	991.726 kg/m3
318.15 K, x1 = 0.004129	-0.00363 kcal/mol	991.723 kg/m3
318.15 K, x1 = 0.004948	-0.00429 kcal/mol	992.021 kg/m3
318.15 K, x1 = 0.004952	-0.00432 kcal/mol	992.018 kg/m3

CC1=CCC(=O)O1 [5-methylfuran-2(3H)-one] + O
Conditions	excess molar enthalpy, [2]	mass density, [1]
288.15 K, x1 = 0.001003	-0.000397 kcal/mol and -0.000394 kcal/mol	999.878 kg/m3 and 999.871 kg/m3
288.15 K, x1 = 0.002004	-0.000729 kcal/mol	1000.64 kg/m3
288.15 K, x1 = 0.002005	-0.000727 kcal/mol	1000.64 kg/m3
288.15 K, x1 = 0.003003	-0.00101 kcal/mol	1001.39 kg/m3
288.15 K, x1 = 0.003004	-0.00101 kcal/mol	1001.39 kg/m3
288.15 K, x1 = 0.004	-0.00125 kcal/mol	1002.15 kg/m3
288.15 K, x1 = 0.004001	-0.00123 kcal/mol	1002.14 kg/m3
288.15 K, x1 = 0.004995	-0.00143 kcal/mol	1002.91 kg/m3
288.15 K, x1 = 0.004996	-0.00141 kcal/mol	1002.92 kg/m3
288.15 K, x1 = 0.00599	-0.00152 kcal/mol and -0.00155 kcal/mol	1003.65 kg/m3 and 1003.64 kg/m3
298.15 K, x1 = 0.001003	-2.65e-05 kcal/mol	997.759 kg/m3
298.15 K, x1 = 0.001004	-2.65e-05 kcal/mol	997.756 kg/m3
298.15 K, x1 = 0.002004	-6.21e-06 kcal/mol	998.467 kg/m3
298.15 K, x1 = 0.002006	-6.21e-06 kcal/mol	998.464 kg/m3
298.15 K, x1 = 0.003003	6.57e-05 kcal/mol	999.156 kg/m3
298.15 K, x1 = 0.003005	6.05e-05 kcal/mol	999.156 kg/m3
298.15 K, x1 = 0.004	0.000175 kcal/mol	999.847 kg/m3
298.15 K, x1 = 0.004003	0.000175 kcal/mol	999.843 kg/m3
298.15 K, x1 = 0.004993	0.000335 kcal/mol	1000.51 kg/m3
298.15 K, x1 = 0.004998	0.000332 kcal/mol	1000.53 kg/m3
298.15 K, x1 = 0.005987	0.000559 kcal/mol	1001.2 kg/m3
298.15 K, x1 = 0.005992	0.000571 kcal/mol	1001.21 kg/m3
308.15 K, x1 = 0.001003	0.000327 kcal/mol and 0.000325 kcal/mol	994.684 kg/m3
308.15 K, x1 = 0.002003	0.000693 kcal/mol	995.33 kg/m3
308.15 K, x1 = 0.002004	0.000693 kcal/mol	995.328 kg/m3
308.15 K, x1 = 0.003002	0.0011 kcal/mol	995.967 kg/m3
308.15 K, x1 = 0.003003	0.0011 kcal/mol	995.967 kg/m3
308.15 K, x1 = 0.003999	0.00155 kcal/mol	996.597 kg/m3
308.15 K, x1 = 0.004	0.00153 kcal/mol	996.594 kg/m3
308.15 K, x1 = 0.004994	0.00204 kcal/mol	997.199 kg/m3
308.15 K, x1 = 0.004995	0.00202 kcal/mol	997.205 kg/m3
308.15 K, x1 = 0.005987	0.00257 kcal/mol	997.78 kg/m3
308.15 K, x1 = 0.00599	0.00258 kcal/mol	997.837 kg/m3
318.15 K, x1 = 0.001003	0.000667 kcal/mol	990.808 kg/m3 and 990.803 kg/m3
318.15 K, x1 = 0.002003	0.00136 kcal/mol and 0.00137 kcal/mol	991.392 kg/m3 and 991.396 kg/m3
318.15 K, x1 = 0.003002	0.00211 kcal/mol and 0.0021 kcal/mol	991.977 kg/m3 and 991.98 kg/m3
318.15 K, x1 = 0.003998	0.00286 kcal/mol	992.55 kg/m3
318.15 K, x1 = 0.003999	0.00286 kcal/mol	992.546 kg/m3
318.15 K, x1 = 0.004993	0.00369 kcal/mol and 0.00367 kcal/mol	993.112 kg/m3 and 993.102 kg/m3
318.15 K, x1 = 0.005986	0.00455 kcal/mol	993.663 kg/m3
318.15 K, x1 = 0.005987	0.00456 kcal/mol	993.668 kg/m3
